Source: PMC12210654, “Palazestrant, a novel oral Complete Estrogen Receptor Antagonist (CERAN) and Selective Estrogen Receptor Degrader (SERD), in patients with ER+/HER2− advanced or metastatic breast cancer: phase 1/2 study results” (Breast Cancer Research : BCR, 2025)
Several values for one entry are separate records, joined by “and”; a condition that tells them apart may be missing. Equal entries are not always repeated. Entries after “also recorded” stand apart in the source; their conditions may differ.

Assay: Safety: adverse events (NCI CTCAE v5.0), electrocardiograms
Assay type: in vivo, human
Conditions: for TEAE Neutropenia, Any grade / TEAE Neutropenia, Grade 3 / TEAE Neutropenia, Grade 4 / TRAE Neutropenia, Any grade / TRAE Neutropenia, Grade 3 / TRAE Neutropenia, Grade 4: includes neutropenia, neutrophil count decreased, febrile neutropenia
Method: Safety assessments included the monitoring of AEs, clinical laboratory parameters, electrocardiograms, and vital signs. AE severity was graded according to the National Cancer Institute Common Terminology Criteria for Adverse Events (version 5.0).
All DLT analyses (phase 1a) were performed in patients enrolled in the study during cycle 1 and who either received 75% of the planned palazestrant doses or experienced a DLT during cycle 1. All PK analyses were performed in patients who received at least 1 dose of palazestrant and had adequate postbaseline PK samples for characterization of PK parameters. All safety analyses were performed and PFS assessed in patients who received at least 1 dose of palazestrant. Clinical response (CR or PR) was assessed in patients who received at least 1 cycle of palazestrant, had measurable disease at baseline, and had at least 1 postbaseline tumor assessment. CBR was assessed in patients who received at least 1 cycle of palazestrant, had at least 1 postbaseline tumor assessment, and started their first dose at least 24 weeks before data cutoff. Patients who discontinued study treatment without radiographic progression within 24 weeks from the first dose were not included in the CBR analysis. PK parameters were estimated using conventional noncompartmental methods. For CBR, estimates were accompanied by 2-sided 95% confidence intervals (95% CIs). For PFS, Kaplan–Meier analyses were used to determine medians, event-free rates, and 95% CIs. For all other outcomes, categorical data were analyzed using frequencies and percentages, and continuous data were analyzed using means (standard deviation) or medians (range), as appropriate.

[1] = any patients treated with palazestrant

## CCCN1CC(Oc2ccc([C@@H]3c4[nH]c5ccccc5c4C[C@@H](C)N3CC(C)(C)F)cc2)C1 [palazestrant, Palazestrant]
60 mg (n = 30)
  TEAE Constipation, Any grade: 6 (20.0) n (%)
  TEAE Constipation, Grade 3: 0 n (%)
  TEAE Constipation, Grade 4: 0 n (%)
  TEAE Diarrhea, Any grade: 6 (20.0) n (%)
  TEAE Diarrhea, Grade 3: 1 (3.3) n (%)
  TEAE Diarrhea, Grade 4: 0 n (%)
  TEAE Fatigue, Any grade: 13 (43.3) n (%)
  TEAE Fatigue, Grade 3: 0 n (%)
  TEAE Fatigue, Grade 4: 0 n (%)
  TEAE Headache, Any grade: 7 (23.3) n (%)
  TEAE Headache, Grade 3: 0 n (%)
  TEAE Headache, Grade 4: 0 n (%)
  TEAE Nausea, Any grade: 14 (46.7) n (%)
  TEAE Nausea, Grade 3: 0 n (%)
  TEAE Nausea, Grade 4: 0 n (%)
  TEAE Vomiting, Any grade: 5 (16.7) n (%)
  TEAE Vomiting, Grade 3: 0 n (%)
  TEAE Vomiting, Grade 4: 0 n (%)
  TRAE Fatigue, Any grade: 9 (30.0) n (%)
  TRAE Fatigue, Grade 3: 0 n (%)
  TRAE Fatigue, Grade 4: 0 n (%)
  TRAE Headache, Any grade: 3 (10.0) n (%)
  TRAE Headache, Grade 3: 0 n (%)
  TRAE Headache, Grade 4: 0 n (%)
  TRAE Nausea, Any grade: 10 (33.3) n (%)
  TRAE Nausea, Grade 3: 0 n (%)
  TRAE Nausea, Grade 4: 0 n (%)
  TRAE Vomiting, Any grade: 3 (10.0) n (%)
  TRAE Vomiting, Grade 3: 0 n (%)
  TRAE Vomiting, Grade 4: 0 n (%)
  TEAE Neutropenia, Any grade: 2 (6.7) n (%)
  TEAE Neutropenia, Grade 3: 0 n (%)
  TEAE Neutropenia, Grade 4: 0 n (%)
  TRAE Neutropenia, Any grade: 0 n (%)
  TRAE Neutropenia, Grade 3: 0 n (%)
  TRAE Neutropenia, Grade 4: 0 n (%)
120 mg (n = 86)
  TEAE Constipation, Any grade: 15 (17.4) n (%)
  TEAE Constipation, Grade 3: 0 n (%)
  TEAE Constipation, Grade 4: 0 n (%)
  TEAE Diarrhea, Any grade: 12 (14.0) n (%)
  TEAE Diarrhea, Grade 3: 0 n (%)
  TEAE Diarrhea, Grade 4: 0 n (%)
  TEAE Fatigue, Any grade: 22 (25.6) n (%)
  TEAE Fatigue, Grade 3: 3 (3.5) n (%)
  TEAE Fatigue, Grade 4: 0 n (%)
  TEAE Headache, Any grade: 17 (19.8) n (%)
  TEAE Headache, Grade 3: 0 n (%)
  TEAE Headache, Grade 4: 0 n (%)
  TEAE Nausea, Any grade: 54 (62.8) n (%)
  TEAE Nausea, Grade 3: 3 (3.5) n (%)
  TEAE Nausea, Grade 4: 0 n (%)
  TEAE Vomiting, Any grade: 25 (29.1) n (%)
  TEAE Vomiting, Grade 3: 4 (4.7) n (%)
  TEAE Vomiting, Grade 4: 0 n (%)
  TRAE Fatigue, Any grade: 17 (19.8) n (%)
  TRAE Fatigue, Grade 3: 2 (2.3) n (%)
  TRAE Fatigue, Grade 4: 0 n (%)
  TRAE Headache, Any grade: 13 (15.1) n (%)
  TRAE Headache, Grade 3: 0 n (%)
  TRAE Headache, Grade 4: 0 n (%)
  TRAE Nausea, Any grade: 47 (54.7) n (%)
  TRAE Nausea, Grade 3: 3 (3.5) n (%)
  TRAE Nausea, Grade 4: 0 n (%)
  TRAE Vomiting, Any grade: 21 (24.4) n (%)
  TRAE Vomiting, Grade 3: 2 (2.3) n (%)
  TRAE Vomiting, Grade 4: 0 n (%)
  TEAE Neutropenia, Any grade: 21 (24.4) n (%)
  TEAE Neutropenia, Grade 3: 3 (3.5) n (%)
  TEAE Neutropenia, Grade 4: 6 (7.0) n (%)
  TRAE Neutropenia, Any grade: 18 (20.9) n (%)
  TRAE Neutropenia, Grade 3: 3 (3.5) n (%)
  TRAE Neutropenia, Grade 4: 5 (5.8) n (%)
120 mg/day
  grade 4 neutropenia resolved with dose interruption followed by dose reduction, treatment continued with no further neutropenia: 3 patients
120 mg/day (n = 86)
  Grade 3 TEAE fatigue: 3.5%
  Grade 3 TEAE nausea: 3.5%
  Grade 3 TEAE neutropenia: 3.5%
  Grade 3 TEAE vomiting: 4.7%
  TEAE fatigue, any grade: 25.6%
  TEAE nausea, any grade: 62.8%
  TEAE vomiting, any grade: 29.1%
  TRAE fatigue, any grade: 19.8%
  TRAE headache, any grade: 15.1%
  TRAE nausea, any grade: 54.7%
  TRAE neutropenia, any grade: 20.9%
  TRAE vomiting, any grade: 24.4%
  grade 3 TRAE fatigue: 2.3%
  grade 3 TRAE nausea: 3.5%
  grade 3 TRAE neutropenia: 3.5%
  grade 3 TRAE vomiting: 2.3%
  grade 4 TEAE acute respiratory failure: 1 patients
  grade 4 TEAE neutropenia: 6 patients
  grade ≥ 3 TEAE neutropenia: 10.5%
  patients with 3 grade 4 events (pulmonary embolism, diverticulitis, acute left ventricular failure): 1 patient
  patients with Grade 3 TEAEs: 24.4%
  patients with Grade 3 treatment-related events: 11.6%
  patients with grade 4 TEAEs: 9.3%
  patients with ≥ 1 TEAE of any grade: 95.3%
120 mg/day (n = 86), 5 patients
  Treatment-related grade 4 neutropenia: 5.8% and 6%
120 mg/day, approximately
  time of grade 4 neutropenia events after initiation of palazestrant: 6-8 weeks
60 or 120 mg/day (n = 116)
  treatment discontinuation due to AEs: 6.0%
RP2D of 120 mg/day
  severity of most TEAEs: grade 1–2; also recorded: grade 1 or 2
  severity of the majority of TRAEs: grade 1 or 2
RP2D, 120 mg/day
  TEAE bradycardia: 9%
  TEAE photopsia: 5%
  grade of all bradycardia and photopsia events: grade 1
  treatment-related diarrhea of any grade: 13%
  treatment-related diarrhea, grade ≥ 3: no grade ≥ 3 events
All dose-escalation cohorts (30 to 300 mg)
  severity of the majority of TEAEs: grade 1 or 2
[1]
  QTcF values: ≤ 500 ms
  changes in QTcF: no clinically significant changes
Of seven patients who discontinued due to AEs
  discontinuations due to AEs assessed as related to palazestrant: 5 patients
Of the 5 patients with treatment-related grade 4 neutropenia, 120 mg/day
  neutropenia resolved upon treatment discontinuation: 2 patients
Of the 6 patients with grade 4 neutropenia
  grade 4 neutropenia resolved following discontinuation of palazestrant: 3 patients
Phase 1a, 30 mg (N=5)
  TEAE Constipation, Toxicity Grade All: 1 (20.0)
  TEAE Constipation, Toxicity Grade G3: 0
  TEAE Constipation, Toxicity Grade G4: 0
  TEAE Decreased appetite, Toxicity Grade All: 1 (20.0)
  TEAE Decreased appetite, Toxicity Grade G3: 0
  TEAE Decreased appetite, Toxicity Grade G4: 0
  TEAE Diarrhea, Toxicity Grade All: 2 (40.0)
  TEAE Diarrhea, Toxicity Grade G3: 0
  TEAE Diarrhea, Toxicity Grade G4: 0
  TEAE Fatigue, Toxicity Grade All: 2 (40.0)
  TEAE Fatigue, Toxicity Grade G3: 0
  TEAE Fatigue, Toxicity Grade G4: 0
  TEAE Headache, Toxicity Grade All: 1 (20.0)
  TEAE Headache, Toxicity Grade G3: 0
  TEAE Headache, Toxicity Grade G4: 0
  TEAE Maculopapular rash, Toxicity Grade All: 1 (20.0)
  TEAE Maculopapular rash, Toxicity Grade G3: 0
  TEAE Maculopapular rash, Toxicity Grade G4: 0
  TEAE Nausea, Toxicity Grade All: 2 (40.0)
  TEAE Nausea, Toxicity Grade G3: 0
  TEAE Nausea, Toxicity Grade G4: 0
  TEAE Neutropenia, Toxicity Grade G3: 0
  TEAE Neutropenia, Toxicity Grade G4: 1 (20.0)
  TEAE Vomiting, Toxicity Grade All: 1 (20.0)
  TEAE Vomiting, Toxicity Grade G3: 0
  TEAE Vomiting, Toxicity Grade G4: 0
Phase 1a, 30 mg (N=5), includes neutropenia and neutrophil count decreased
  TEAE Neutropenia, Toxicity Grade All: 1 (20.0)
Phase 1a, 60 mg (N=6)
  TEAE Constipation, Toxicity Grade All: 1 (16.7)
  TEAE Constipation, Toxicity Grade G3: 0
  TEAE Constipation, Toxicity Grade G4: 0
  TEAE Decreased appetite, Toxicity Grade All: 0
  TEAE Decreased appetite, Toxicity Grade G3: 0
  TEAE Decreased appetite, Toxicity Grade G4: 0
  TEAE Diarrhea, Toxicity Grade All: 2 (33.3)
  TEAE Diarrhea, Toxicity Grade G3: 0
  TEAE Diarrhea, Toxicity Grade G4: 0
  TEAE Fatigue, Toxicity Grade All: 3 (50.0)
  TEAE Fatigue, Toxicity Grade G3: 0
  TEAE Fatigue, Toxicity Grade G4: 0
  TEAE Headache, Toxicity Grade All: 1 (16.7)
  TEAE Headache, Toxicity Grade G3: 0
  TEAE Headache, Toxicity Grade G4: 0
  TEAE Maculopapular rash, Toxicity Grade All: 1 (16.7)
  TEAE Maculopapular rash, Toxicity Grade G3: 0
  TEAE Maculopapular rash, Toxicity Grade G4: 0
  TEAE Nausea, Toxicity Grade All: 2 (33.3)
  TEAE Nausea, Toxicity Grade G3: 0
  TEAE Nausea, Toxicity Grade G4: 0
  TEAE Neutropenia, Toxicity Grade G3: 0
  TEAE Neutropenia, Toxicity Grade G4: 0
  TEAE Vomiting, Toxicity Grade All: 1 (16.7)
